Assays:
Dipeptidyl peptidase 4 = Dipeptidyl peptidase 4 (Homo sapiens, UniProt P27487); test: Inhibition of DPP4 in human plasma assessed as formation of 7-amino-4-methylcoumarin from glycyl-L-proline 4-methylcoumaryl-7-amide by fluorescence assay
Cytochrome P450 2D6 = Cytochrome P450 2D6 (Homo sapiens, UniProt P10635); test: Inhibition of CYP2D6; type: ADME
Cytochrome P450 1A2 = biological target: T1, Cytochrome P450 1A2 (Homo sapiens, UniProt P05177); test: Inhibition of CYP1A2; type: ADME
T1 sequence (P05177 whole entry): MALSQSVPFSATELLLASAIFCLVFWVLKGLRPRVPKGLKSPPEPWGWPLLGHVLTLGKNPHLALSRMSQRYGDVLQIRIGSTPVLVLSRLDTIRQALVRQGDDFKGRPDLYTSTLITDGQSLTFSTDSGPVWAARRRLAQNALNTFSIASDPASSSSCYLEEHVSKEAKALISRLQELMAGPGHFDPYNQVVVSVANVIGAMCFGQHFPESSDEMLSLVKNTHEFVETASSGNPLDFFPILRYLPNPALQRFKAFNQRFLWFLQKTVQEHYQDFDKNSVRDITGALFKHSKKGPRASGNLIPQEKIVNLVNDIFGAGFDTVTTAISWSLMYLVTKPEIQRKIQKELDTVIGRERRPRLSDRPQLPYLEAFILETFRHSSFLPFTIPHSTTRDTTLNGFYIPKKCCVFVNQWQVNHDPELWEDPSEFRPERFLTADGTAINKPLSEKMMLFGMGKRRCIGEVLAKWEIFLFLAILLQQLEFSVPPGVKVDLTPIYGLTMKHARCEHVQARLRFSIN

Cytochrome P450 3A4 = Cytochrome P450 3A4 (Homo sapiens, UniProt P08684); test: Inhibition of CYP3A4; type: ADME
Chain of Cytochrome P450 3A4 (P08684 whole entry): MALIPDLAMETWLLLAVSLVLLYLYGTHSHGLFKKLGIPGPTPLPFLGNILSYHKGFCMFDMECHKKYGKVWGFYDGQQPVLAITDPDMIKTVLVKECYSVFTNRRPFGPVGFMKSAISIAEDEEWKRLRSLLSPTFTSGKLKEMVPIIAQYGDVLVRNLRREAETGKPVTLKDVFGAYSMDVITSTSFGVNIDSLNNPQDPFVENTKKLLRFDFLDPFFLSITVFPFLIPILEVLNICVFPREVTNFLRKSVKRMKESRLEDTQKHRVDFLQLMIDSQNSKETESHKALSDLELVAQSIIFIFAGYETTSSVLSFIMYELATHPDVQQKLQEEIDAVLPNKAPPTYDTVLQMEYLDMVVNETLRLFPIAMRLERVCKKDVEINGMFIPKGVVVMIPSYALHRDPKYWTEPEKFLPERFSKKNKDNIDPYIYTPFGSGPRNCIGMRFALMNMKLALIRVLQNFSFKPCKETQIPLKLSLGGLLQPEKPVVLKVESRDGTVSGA

Chain of Dipeptidyl peptidase 4 (P27487 whole entry): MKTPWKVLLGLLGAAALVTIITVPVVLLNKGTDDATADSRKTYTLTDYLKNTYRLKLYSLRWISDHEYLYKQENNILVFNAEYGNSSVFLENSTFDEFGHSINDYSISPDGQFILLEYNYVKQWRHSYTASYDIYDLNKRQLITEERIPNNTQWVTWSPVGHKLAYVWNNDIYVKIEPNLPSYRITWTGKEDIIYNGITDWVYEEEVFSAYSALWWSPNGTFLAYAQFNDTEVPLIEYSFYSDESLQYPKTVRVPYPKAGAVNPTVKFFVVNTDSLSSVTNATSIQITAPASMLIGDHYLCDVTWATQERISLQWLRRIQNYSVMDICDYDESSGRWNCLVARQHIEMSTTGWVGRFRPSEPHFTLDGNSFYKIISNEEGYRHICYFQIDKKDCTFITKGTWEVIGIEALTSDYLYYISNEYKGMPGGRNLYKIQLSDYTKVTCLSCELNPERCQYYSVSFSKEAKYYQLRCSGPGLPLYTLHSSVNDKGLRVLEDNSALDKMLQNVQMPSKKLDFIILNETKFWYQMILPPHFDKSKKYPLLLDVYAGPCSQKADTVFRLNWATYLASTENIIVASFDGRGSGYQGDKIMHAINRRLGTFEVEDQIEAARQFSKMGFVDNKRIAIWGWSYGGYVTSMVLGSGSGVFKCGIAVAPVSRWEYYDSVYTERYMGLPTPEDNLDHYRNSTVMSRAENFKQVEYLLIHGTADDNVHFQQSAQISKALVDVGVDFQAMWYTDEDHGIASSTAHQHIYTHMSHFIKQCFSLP
Chain of Cytochrome P450 2D6 (P10635 whole entry): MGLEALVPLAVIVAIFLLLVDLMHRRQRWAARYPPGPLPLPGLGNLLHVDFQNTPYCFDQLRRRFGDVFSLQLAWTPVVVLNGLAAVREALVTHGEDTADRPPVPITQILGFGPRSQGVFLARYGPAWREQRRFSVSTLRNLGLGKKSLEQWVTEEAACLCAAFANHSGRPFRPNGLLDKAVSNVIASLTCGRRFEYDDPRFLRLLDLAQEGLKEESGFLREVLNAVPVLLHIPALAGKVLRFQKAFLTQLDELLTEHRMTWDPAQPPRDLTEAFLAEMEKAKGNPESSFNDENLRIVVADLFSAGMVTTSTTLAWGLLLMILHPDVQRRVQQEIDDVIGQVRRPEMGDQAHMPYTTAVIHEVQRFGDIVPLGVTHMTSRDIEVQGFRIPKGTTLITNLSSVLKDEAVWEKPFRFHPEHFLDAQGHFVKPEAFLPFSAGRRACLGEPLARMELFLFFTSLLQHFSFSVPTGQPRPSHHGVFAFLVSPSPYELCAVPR

Structure (SMILES) | IC50 (Dipeptidyl peptidase 4) | IC50 (Cytochrome P450 2D6) | IC50 (Cytochrome P450 1A2) | IC50 (Cytochrome P450 3A4)
CC[C@]1(N)CCCN(c2cc3c(c(=O)n(C)c(=O)n3C)n2Cc2cc(F)ccc2C#N)C1 | > 1000 nM | – | – | –
Cn1c(=O)c2c(cc(N3CCC[C@@H](N)C3)n2Cc2cc(F)ccc2C#N)n(C)c1=O | 0.34 nM | 7500 nM | 14700 nM | 1600 nM
CC[C@@]1(N)CCCN(c2cc3c(c(=O)n(C)c(=O)n3C)n2Cc2cc(F)ccc2C#N)C1 | 26 nM | – | – | –

From ChEMBL document CHEMBL1817578, “2-({6-[(3R)-3-amino-3-methylpiperidine-1-yl]-1,3-dimethyl-2,4-dioxo-1,2,3,4-tetrahydro-5H-pyrrolo[3,2-d]pyrimidine-5-yl}methyl)-4-fluorobenzonitrile (DSR-12727): a potent, orally active dipeptidyl peptidase IV inhibitor without mechanism-based inactivation of CYP3A” (Bioorg Med Chem, 2011)
